In US5972933A, “Method of treating microbial infections” (Ed. Geistlich Sohne AG Fur Chemische Industrie, priority 1998, dated 1999):
≈ marks a conversion by molar mass, not a printed value. Entries after “also recorded” stand apart in the source; their conditions may differ. Like-named read-outs stand apart in the source and are kept apart here.

Assays:
[1] = test system: bacteria and fungi; details: known antimicrobial substances; cited from earlier work
[2] = test system: TNF production; experiment: TNF production in human blood / antibiotic-treated cultures; format: cell-based
Text: Taurolidine and/or Taurultam prevent over-production of cytokines in the patient by monocytes of the blood.

[3] = test system: E. faecalis; experiment: Two percent taurolidine solution tested against bacteria, E. faecalis (Example 5); format: cell-based; details: Enterococcus faecalis, 24 h, 5×10^4 CFU/well, one line per sample (strain)
Experimental: (§1) Two percent taurolidine solution was tested against various bacteria at 5×10^4 CFU/well, according to Manual of Clinical Microbiology, 6th edition, P. R. Murray et al., pp. 1334-1335.

[4] = test system: E. faecium; experiment: Two percent taurolidine solution tested against bacteria, E. faecium (Example 5); format: cell-based; details: Enterococcus faecium, 48 h, 5×10^4 CFU/well, one line per sample (strain)
Experimental: as §1

[5] = test system: Methicillin-Resistant Staphylococcus aureus (MRSA); experiment: Taurolidine MIC by broth microdilution, methicillin-resistant S. aureus (EMRSA 15); format: cell-based; details: compared to NCTC 6571 or previous studies with fully sensitive strains
Experimental: All test strains were clinical isolates recovered from patients attending Hammersmith Hospital, London. Strains of Staphylococcus aureus (epidemic methicillin-resistant strain 15 (EMRSA 15) and vancomycin-resistant Enterococcus faecalis were broadly unselected isolates from local culture collections. However, strain selection was conducted so as to ensure that isolates were not consecutive isolates from individual patients.
Taurolidine MICs were performed using a sample of authenticated anhydrous micronised taurolidine batch number E/40522/4 (Geistlich Pharma AG, Wolhusen, Switzerland).
An aqueous stock solution of taurolidine was prepared to contain 2 g/100 ml taurolidine in water. This preparation was solubilized and sterilized by heating to 121° C. (15 psi) for 15 minutes.
Using this stock solution, serial doubling dilution of taurolidine were prepared in Unipath (Oxoid) Nutrient Broth Number 2 using 50 μl volumes in sterile round bottom microdilution trays. To these dilutions was added an equal volume of drug-free broth containing a suspension of the test organism to give a final inoculumn density of approximately 10^3 cfu. Inocula were prepared from overnight drug-free broth cultures of each test organism in Unipath (Oxoid) Nutrient Broth Number 2.
Final test concentrations of taurolidine were as follows:
All tests were incubated at 37 C for 18 hours. […]

[6] = test system: bacteria and fungi; experiment: Antimicrobial activity (general statements); format: cell-based
[7] = test system: Enterococcus faecium; experiment: Taurolidine in vitro susceptibility, E. faecium (Example 4); format: cell-based
Text: (§2) The in vitro susceptibility to taurolidine of a panel of clinical isolates and reference strains of Enterococcus faecium (n=20,7 strains vancomycin resistant) and Enterococcus faecalis (n-53,5 strains vancomycin resistant) has been examined. […] In all cases, the Minimum Bacteriocidal Concentration (MBC) of taurolidine was within 2 dilutions of the corresponding value for MIC confirming a bactericidal mode of action. In vitro resistance to taurolidine was not observed.

[8] = test system: Enterococcus faecalis; experiment: Taurolidine in vitro susceptibility, E. faecalis (Example 4); format: cell-based; details: E. faecalis strains, read-out: MIC range
Text: as §2

What does the source list for `O=S1(=O)CCN(CN2CCS(=O)(=O)NC2)CN1` [Taurolidine]?
antimicrobial spectrum [1]: broad-spectrum activity against aerobic and anaerobic bacteria, mycobacteria and fungi; TNF production ([2]; added to antibiotic-treated cultures): prevents a rise in TNF production; neutralization of released endotoxins ([2]; antibiotic-treated cultures): nearly complete neutralization of released endotoxins; MBC [3]: 500 µg/mL (≈ 1760 µM); MIC [4]: 250 µg/mL (≈ 879 µM); difference in level of susceptibility to taurolidine [5]: no difference in level of susceptibility to taurolidine; rate of bacterial killing [6]: kills bacteria slowly; resistance development [6]: Resistance has not been observed either in vivo or in vitro; also recorded: no resistance development by microbes has been observed; in vitro effectiveness against bacterial strains ([6]; in vitro, including multi-resistant strains, VRE and MRSA): effective against all gram negative and gram positive bacterial strains tested to-date; in vitro effectiveness against antibiotic-resistant pathogens ([6]; in vitro, pathogens resistant to methicillin and vancomycin): fully effective in vitro; antifungal activity ([6]; yeast-like and filamentous fungi): useful activity against most yeast-like and filamentous fungi; MIC ([7]; E. faecium strains, read-out: MIC range): 95 to 375 µg/mL (≈ 334 to 1320 µM); MBC ([7]; E. faecium, VAN R strains, read-out: MBC, Avg.): 446 µg/mL (≈ 1570 µM); MBC ([7]; E. faecium, VAN R strains, read-out: MBC, Max.): 500 µg/mL (≈ 1760 µM); MBC ([7]; E. faecium, VAN R strains, read-out: MBC, Mean): 446 µg/mL (≈ 1570 µM); MBC ([7]; E. faecium, VAN R strains, read-out: MBC, Median): 500 µg/mL (≈ 1760 µM); MBC ([7]; E. faecium, VAN R strains, read-out: MBC, Min.): 375 µg/mL (≈ 1320 µM); MBC ([7]; E. faecium, VAN R strains, read-out: MBC, Mode): 500 µg/mL (≈ 1760 µM); MIC ([7]; E. faecium, VAN R strains, read-out: MIC, Avg.): 161 µg/mL (≈ 566 µM); MIC ([7]; E. faecium, VAN R strains, read-out: MIC, Max.): 250 µg/mL (≈ 879 µM); MIC ([7]; E. faecium, VAN R strains, read-out: MIC, Mean): 161 µg/mL (≈ 566 µM); MIC ([7]; E. faecium, VAN R strains, read-out: MIC, Median): 95 µg/mL (≈ 334 µM); MIC ([7]; E. faecium, VAN R strains, read-out: MIC, Min.): 95 µg/mL (≈ 334 µM); MIC ([7]; E. faecium, VAN R strains, read-out: MIC, Mode): 95 µg/mL (≈ 334 µM); MBC ([7]; E. faecium, VAN S strains, read-out: MBC, Avg.): 666 µg/mL (≈ 2340 µM); MBC ([7]; E. faecium, VAN S strains, read-out: MBC, Max.): 1000 µg/mL (≈ 3520 µM); MBC ([7]; E. faecium, VAN S strains, read-out: MBC, Mean): 666 µg/mL (≈ 2340 µM); MBC ([7]; E. faecium, VAN S strains, read-out: MBC, Median): 750 µg/mL (≈ 2640 µM); MBC ([7]; E. faecium, VAN S strains, read-out: MBC, Min.): 500 µg/mL (≈ 1760 µM); MBC ([7]; E. faecium, VAN S strains, read-out: MBC, Mode): 750 µg/mL (≈ 2640 µM); MIC ([7]; E. faecium, VAN S strains, read-out: MIC, Avg.): 323 µg/mL (≈ 1140 µM); MIC ([7]; E. faecium, VAN S strains, read-out: MIC, Max.): 375 µg/mL (≈ 1320 µM); MIC ([7]; E. faecium, VAN S strains, read-out: MIC, Mean): 323 µg/mL (≈ 1140 µM); MIC ([7]; E. faecium, VAN S strains, read-out: MIC, Median): 375 µg/mL (≈ 1320 µM); MIC ([7]; E. faecium, VAN S strains, read-out: MIC, Min.): 125 µg/mL (≈ 440 µM); MIC ([7]; E. faecium, VAN S strains, read-out: MIC, Mode): 375 µg/mL (≈ 1320 µM); MBC ([7]; E. faecium, all strains, read-out: MBC, Avg.): 581 µg/mL (≈ 2040 µM); MBC ([7]; E. faecium, all strains, read-out: MBC, Max.): 1000 µg/mL (≈ 3520 µM); MBC ([7]; E. faecium, all strains, read-out: MBC, Mean): 581 µg/mL (≈ 2040 µM); MBC ([7]; E. faecium, all strains, read-out: MBC, Median): 500 µg/mL (≈ 1760 µM); MBC ([7]; E. faecium, all strains, read-out: MBC, Min.): 375 µg/mL (≈ 1320 µM); MBC ([7]; E. faecium, all strains, read-out: MBC, Mode): 500 µg/mL (≈ 1760 µM); MIC ([7]; E. faecium, all strains, read-out: MIC, Avg.): 260 µg/mL (≈ 914 µM); MIC ([7]; E. faecium, all strains, read-out: MIC, Max.): 375 µg/mL (≈ 1320 µM); MIC ([7]; E. faecium, all strains, read-out: MIC, Mean): 260 µg/mL (≈ 914 µM); MIC ([7]; E. faecium, all strains, read-out: MIC, Median): 250 µg/mL (≈ 879 µM); MIC ([7]; E. faecium, all strains, read-out: MIC, Min.): 95 µg/mL (≈ 334 µM); MIC ([7]; E. faecium, all strains, read-out: MIC, Mode): 375 µg/mL (≈ 1320 µM); MIC [8]: 125 to 500 µg/mL (≈ 440 to 1760 µM)
